In brackets after ≈: the same amount, converted by molar mass.
Assays:
[1] = tested on: M. tuberculosis MDR (resistant to isoniazid and rifampicin); assay: microbe, parasite or virus in culture; assay type: cell-based; conditions: Mycobacterium tuberculosis, 504 h, read-out: MIC M. tb MDR
[2] = tested on: M. tuberculosis XDR (resistant to isoniazid, rifampicin, amikacin and moxifloxacin); assay: microbe, parasite or virus in culture; assay type: cell-based; conditions: Mycobacterium tuberculosis, 504 h, read-out: MIC M. tb XDR

C[C@]1(COc2ccc(-n3cc(-c4ccccc4)nn3)cc2)Cn2cc([N+](=O)[O-])nc2O1 [IA1]
MIC [1]: 4 µg/mL (≈ 9.56 µM) | MIC [2]: 4 µg/mL (≈ 9.56 µM)

CCc1ccc(-c2cn(-c3ccc(OC[C@@]4(C)Cn5cc([N+](=O)[O-])nc5O4)cc3)nn2)cc1 [IA2, (R)-2-{4-[4-(4-ethylphenyl)-1H-1,2,3-triazol-1-yl]phenoxymethyl}-2,3-dihydro-2-methyl-6-nitroimidazo[2,1-b]oxazole]
MIC [1]: 4 µg/mL (≈ 8.96 µM) | MIC [2]: 4 µg/mL (≈ 8.96 µM)

C[C@]1(COc2ccc(-n3cc(-c4ccc(F)cc4)nn3)cc2)Cn2cc([N+](=O)[O-])nc2O1 [IA3, (R)-2-{4-[4-(4-fluorophenyl)-1H-1,2,3-triazol-1-yl]phenoxymethyl}-2,3-dihydro-2-methyl-6-nitroimidazo[2,1-b]oxazole]
MIC [1]: 0.25 µg/mL (≈ 0.573 µM) | MIC [2]: 0.25 µg/mL (≈ 0.573 µM)

C[C@]1(COc2ccc(-n3cc(-c4ccccc4F)nn3)cc2)Cn2cc([N+](=O)[O-])nc2O1 [IA4, (R)-2-{4-[4-(2-fluorophenyl)-1H-1,2,3-triazol-1-yl]phenoxymethyl}-2,3-dihydro-2-methyl-6-nitroimidazo[2,1-b]oxazole]
MIC [1]: 2 µg/mL (≈ 4.58 µM) | MIC [2]: 2 µg/mL (≈ 4.58 µM)

C[C@]1(COc2ccc(-n3cc(-c4ccc(OC(F)(F)F)cc4)nn3)cc2)Cn2cc([N+](=O)[O-])nc2O1 [IA5, (R)-2-{4-[4-(4-trifluoromethoxyphenyl)-1H-1,2,3-triazol-1-yl]phenoxymethyl}-2,3-dihydro-2-methyl-6-nitroimidazo[2,1-b]oxazole]
MIC [1]: 0.5 µg/mL (≈ 0.995 µM) | MIC [2]: 0.5 µg/mL (≈ 0.995 µM)

C[C@]1(COc2ccc(-n3cc(-c4ccccc4C(F)(F)F)nn3)cc2)Cn2cc([N+](=O)[O-])nc2O1 [IA6, (R)-2-{4-[4-(2-trifluoromethylphenyl)-1H-1,2,3-triazol-1-yl]phenoxymethyl}-2,3-dihydro-2-methyl-6-nitroimidazo[2,1-b]oxazole]
MIC [1]: 1 µg/mL (≈ 2.06 µM) | MIC [2]: 1 µg/mL (≈ 2.06 µM)

C[C@]1(COc2ccc(-n3cc(-c4ccc(F)cc4F)nn3)cc2)Cn2cc([N+](=O)[O-])nc2O1 [IA7, (R)-2-{4-[4-(2,4-difluorophenyl)-1H-1,2,3-triazol-1-yl]phenoxymethyl}-2,3-dihydro-2-methyl-6-nitroimidazo[2,1-b]oxazole]
MIC [1]: 2 µg/mL (≈ 4.4 µM) | MIC [2]: 2 µg/mL (≈ 4.4 µM)

Cc1ccc(-c2cn(-c3ccc(OC[C@@]4(C)Cn5cc([N+](=O)[O-])nc5O4)cc3)nn2)cc1 [IA8, (R)-2-{4-[4-(4-methylphenyl)-1H-1,2,3-triazol-1-yl]phenoxymethyl}-2,3-dihydro-2-methyl-6-nitroimidazo[2,1-b]oxazole]
MIC [1]: 1 µg/mL (≈ 2.31 µM) | MIC [2]: 1 µg/mL (≈ 2.31 µM)

CC(C)c1ccc(-c2cn(-c3ccc(OC[C@@]4(C)Cn5cc([N+](=O)[O-])nc5O4)cc3)nn2)cc1 [IA9, (R)-2-{4-[4-(4-isopropylphenyl)-1H-1,2,3-triazol-1-yl]phenoxymethyl}-2,3-dihydro-2-methyl-6-nitroimidazo[2,1-b]oxazole]
MIC [1]: 1 µg/mL (≈ 2.17 µM) | MIC [2]: 1 µg/mL (≈ 2.17 µM)

C[C@]1(COc2ccc(-n3cc(-c4cccc(F)c4)nn3)cc2)Cn2cc([N+](=O)[O-])nc2O1 [IA10, (R)-2-{4-[4-(3-fluorophenyl)-1H-1,2,3-triazol-1-yl]phenoxymethyl}-2,3-dihydro-2-methyl-6-nitroimidazo[2,1-b]oxazole]
MIC [1]: 2 µg/mL (≈ 4.58 µM) | MIC [2]: 2 µg/mL (≈ 4.58 µM)

COc1ccc(-c2cn(-c3ccc(OC[C@@]4(C)Cn5cc([N+](=O)[O-])nc5O4)cc3)nn2)cc1 [IA11, (R)-2-{4-[4-(4-methoxyphenyl)-1H-1,2,3-triazol-1-yl]phenoxymethyl}-2,3-dihydro-2-methyl-6-nitroimidazo[2,1-b]oxazole]
MIC [1]: 0.25 µg/mL (≈ 0.557 µM) | MIC [2]: 0.25 µg/mL (≈ 0.557 µM)

C[C@]1(COc2ccc(-n3cc(-c4cccc(OC(F)(F)F)c4)nn3)cc2)Cn2cc([N+](=O)[O-])nc2O1 [IA12, (R)-2-{4-[4-(3-trifluoromethoxyphenyl)-1H-1,2,3-triazol-1-yl]phenoxymethyl}-2,3-dihydro-2-methyl-6-nitroimidazo[2,1-b]oxazole]
MIC [1]: 0.5 µg/mL (≈ 0.995 µM) | MIC [2]: 0.5 µg/mL (≈ 0.995 µM)

C[C@]1(COc2ccc(-n3cc(-c4cccc(C(F)(F)F)c4)nn3)cc2)Cn2cc([N+](=O)[O-])nc2O1 [IA13, (R)-2-{4-[4-(3-trifluoromethylphenyl)-1H-1,2,3-triazol-1-yl]phenoxymethyl}-2,3-dihydro-2-methyl-6-nitroimidazo[2,1-b]oxazole]
MIC [1]: 2 µg/mL (≈ 4.11 µM) | MIC [2]: 2 µg/mL (≈ 4.11 µM)

C[C@]1(COc2ccc(-n3cc(-c4ccccn4)nn3)cc2)Cn2cc([N+](=O)[O-])nc2O1 [IA14]
MIC [1]: 2 µg/mL (≈ 4.77 µM) | MIC [2]: 2 µg/mL (≈ 4.77 µM)

CCCCCc1cn(-c2ccc(OC[C@@]3(C)Cn4cc([N+](=O)[O-])nc4O3)cc2)nn1 [IA15, (R)-2-{4-[4-pentyl-1H-1,2,3-triazol-1-yl]phenoxymethyl}-2,3-dihydro-2-methyl-6-nitroimidazo[2,1-b]oxazole]
MIC [1]: 32 µg/mL (≈ 77.6 µM) | MIC [2]: 32 µg/mL (≈ 77.6 µM)

CCCCCCCc1cn(-c2ccc(OC[C@@]3(C)Cn4cc([N+](=O)[O-])nc4O3)cc2)nn1 [IA16, (R)-2-{4-[4-heptyl-1H-1,2,3-triazol-1-yl]phenoxymethyl}-2,3-dihydro-2-methyl-6-nitroimidazo[2,1-b]oxazole]
MIC [1]: 4 µg/mL (≈ 9.08 µM) | MIC [2]: 4 µg/mL (≈ 9.08 µM)

C[C@]1(COc2cccc(-n3cc(-c4ccc(F)cc4)nn3)c2)Cn2cc([N+](=O)[O-])nc2O1 [IA17, (R)-2-{3-[4-(4-fluorophenyl)-1H-1,2,3-triazol-1-yl]phenoxymethyl}-2,3-dihydro-2-methyl-6-nitroimidazo[2,1-b]oxazole]
MIC [1]: 2 µg/mL (≈ 4.58 µM) | MIC [2]: 2 µg/mL (≈ 4.58 µM)

C[C@]1(COc2cccc(-n3cc(-c4ccc(C(F)(F)F)cc4)nn3)c2)Cn2cc([N+](=O)[O-])nc2O1 [IA18, (R)-2-{3-[4-(4-trifluoromethylphenyl)-1H-1,2,3-triazol-1-yl]phenoxymethyl}-2,3-dihydro-2-methyl-6-nitroimidazo[2,1-b]oxazole]
MIC [1]: 2 µg/mL (≈ 4.11 µM) | MIC [2]: 2 µg/mL (≈ 4.11 µM)

C[C@]1(COc2cccc(-n3cc(-c4ccc(OC(F)(F)F)cc4)nn3)c2)Cn2cc([N+](=O)[O-])nc2O1 [IA19, (R)-2-{3-[4-(4-trifluoromethoxyphenyl)-1H-1,2,3-triazol-1-yl]phenoxymethyl}-2,3-dihydro-2-methyl-6-nitroimidazo[2,1-b]oxazole]
MIC [1]: 4 µg/mL (≈ 7.96 µM) | MIC [2]: 4 µg/mL (≈ 7.96 µM)

C[C@]1(COc2cccc(-n3cc(-c4ccc(F)cc4F)nn3)c2)Cn2cc([N+](=O)[O-])nc2O1 [IA20, (R)-2-{3-[4-(2,4-difluorophenyl)-1H-1,2,3-triazol-1-yl]phenoxymethyl}-2,3-dihydro-2-methyl-6-nitroimidazo[2,1-b]oxazole]
MIC [1]: 4 µg/mL (≈ 8.8 µM) | MIC [2]: 4 µg/mL (≈ 8.8 µM)

C[C@]1(COc2ccccc2-n2cc(-c3ccc(F)cc3)nn2)Cn2cc([N+](=O)[O-])nc2O1 [IA21, (R)-2-{2-[4-(4-fluorophenyl)-1H-1,2,3-triazol-1-yl]phenoxymethyl}-2,3-dihydro-2-methyl-6-nitroimidazo[2,1-b]oxazole]
MIC [1]: 1 µg/mL (≈ 2.29 µM) | MIC [2]: 1 µg/mL (≈ 2.29 µM)

C[C@]1(COc2ccccc2-n2cc(-c3ccc(C(F)(F)F)cc3)nn2)Cn2cc([N+](=O)[O-])nc2O1 [IA22, (R)-2-{2-[4-(4-trifluoromethylphenyl)-1H-1,2,3-triazol-1-yl]phenoxymethyl}-2,3-dihydro-2-methyl-6-nitroimidazo[2,1-b]oxazole]
MIC [1]: 4 µg/mL (≈ 8.22 µM) | MIC [2]: 4 µg/mL (≈ 8.22 µM)

— patent US9845330B2, “6-nitro-2,3-dihydroimidazo[2,1-b]oxazoles and a process for the preparation thereof” (priority 2013, dated 2017)
